Measured values from US10253030B2, “Crystal form, preparation method and intermediate of dihydropyrido ring compound” (QILU PHARMACEUTICAL CO., LTD., priority 2015, dated 2019).

How the values were obtained:
HBV = test: qPCR assay for HBV in vitro test (HBV DNA content in HepG2.2.15 cells); assay type: cell-based
Description: qPCR Assay for HBV In Vitro Test
The HBV DNA content in HepG2.2.15 cells was detected by real-time qPCR assay, and the EC50 values of the compounds were used as indicators to evaluate the inhibitory effect of the compounds on HBV.
2.1 Cell Line: HepG2.2.15 Cells
3.1 HepG2.2.15 cells (4×10^4 cells/well) were seeded in a 96-well plate and incubated at 37° C. under 5% CO 2 overnight.
3.2 On the second day, the compound was diluted into a total of 8 concentrations with 3-fold gradient dilution. Different concentrations of the compound were added to the culture wells, in duplicate. The final concentration of DMSO in the culture medium was 1%. 1 μM GLS4 was used as 100% inhibition control; 1% DMSO was used as 0% inhibition control.
3.3 On the fifth day, the fresh culture medium containing the compound was replaced.
3.4 On the eighth day, the culture medium in the culture wells was collected and DNA was extracted using a high-throughput DNA purification kit (Qiagen-51162). Refer to the product manual for the specific procedure.
3.1 15 μl of reaction mixture was added to each well of a 96-well PCR plate, then 10 μl of sample DNA or standard of HBV DNA to each well.
3.2 PCR reaction conditions: heating at 95° C. for 10 minutes; then denaturing at 95° C. for 15 seconds, extension at 60° C. for 1 minute, a total of 40 cycles. […]

Hepatitis B virus = settings: prior art, Science, 299 (2003), 893-896; cited from earlier work

SMILES	EC50 (HBV; Hepatitis B virus, 192 h, HBV DNA in culture medium by real-time qPCR, day 8, read-out: Concentration for 50% of inhibition (EC50) value on HBV)	inhibitory effect on HBV DNA (HBV; qPCR, conclusion in words)	IC50 (Hepatitis B virus)
COC(=O)C1=C2C[C@H](NS(N)(=O)=O)CN2C(c2nccs2)=N[C@H]1c1ccc(F)c(F)c1F [Compound 1]	≤ 100 nM	significant inhibitory effect on HBV DNA	
Nc1ccn([C@@H]2CS[C@H](CO)O2)c(=O)n1 [Iamivudine]			300 nM
